Experimental data taken from ChEMBL document CHEMBL5465560, “Selectivity Literature for EUbOPEN Chemogenomic Library” (2024).

Key:
[1] = target: Focal adhesion kinase 1 (Homo sapiens, UniProt Q05397); assay: Selectivity interaction (KinomeScan (DiscoverX)) EUB0000666a PTK2; conditions: at 10 µM
[2] = target: Casein kinase I isoform epsilon (Homo sapiens, UniProt P49674); conditions: at 10 µM
[3] = target: Serine/threonine-protein kinase Nek7 (Homo sapiens) (UniProt Q8TDX7); assay: Selectivity interaction (ActivX KiNativ screen (kinase selectivity in THP-1 cell lysates)) EUB0000639a NEK7; format: subcellular; conditions: lysate, at 0.04 µM
Chain of Serine/threonine-protein kinase Nek7 (Homo sapiens) (Q8TDX7 whole entry, looked up): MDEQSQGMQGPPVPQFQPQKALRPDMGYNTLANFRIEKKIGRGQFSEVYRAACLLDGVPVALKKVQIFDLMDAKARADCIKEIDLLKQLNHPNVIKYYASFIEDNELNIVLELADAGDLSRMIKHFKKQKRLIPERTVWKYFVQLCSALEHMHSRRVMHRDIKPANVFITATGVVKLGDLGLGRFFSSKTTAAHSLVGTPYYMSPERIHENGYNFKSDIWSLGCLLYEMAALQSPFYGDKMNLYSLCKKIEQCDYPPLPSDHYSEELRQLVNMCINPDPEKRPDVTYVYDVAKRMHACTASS

[4] = target: Cyclin-dependent kinase 18 (Homo sapiens) (UniProt Q07002); assay: Selectivity interaction (ActivX KiNativ screen (kinase selectivity in THP-1 cell lysates)) EUB0000639a CDK18; format: subcellular; conditions: lysate
Chain of Cyclin-dependent kinase 18 (Homo sapiens) (Q07002 whole entry): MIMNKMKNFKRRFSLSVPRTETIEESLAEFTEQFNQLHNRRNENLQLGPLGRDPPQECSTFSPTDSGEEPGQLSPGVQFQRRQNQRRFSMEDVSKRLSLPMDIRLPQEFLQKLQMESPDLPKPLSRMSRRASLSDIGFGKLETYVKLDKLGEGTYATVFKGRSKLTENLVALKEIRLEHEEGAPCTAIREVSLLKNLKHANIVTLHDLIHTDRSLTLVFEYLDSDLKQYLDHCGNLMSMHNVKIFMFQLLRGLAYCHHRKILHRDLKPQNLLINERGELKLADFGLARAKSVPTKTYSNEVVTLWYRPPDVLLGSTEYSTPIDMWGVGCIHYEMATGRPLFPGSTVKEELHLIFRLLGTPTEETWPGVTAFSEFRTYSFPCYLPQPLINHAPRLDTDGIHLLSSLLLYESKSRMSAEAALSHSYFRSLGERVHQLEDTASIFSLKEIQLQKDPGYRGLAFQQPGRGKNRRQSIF

[5] = target: Ribosomal protein S6 kinase alpha-3 (Homo sapiens, UniProt P51812); assay: Selectivity interaction (ActivX KiNativ screen (kinase selectivity in THP-1 cell lysates)) EUB0000639a RPS6KA3; format: subcellular; conditions: lysate, at 1 µM
Chain of Ribosomal protein S6 kinase alpha-3 (P51812 whole entry): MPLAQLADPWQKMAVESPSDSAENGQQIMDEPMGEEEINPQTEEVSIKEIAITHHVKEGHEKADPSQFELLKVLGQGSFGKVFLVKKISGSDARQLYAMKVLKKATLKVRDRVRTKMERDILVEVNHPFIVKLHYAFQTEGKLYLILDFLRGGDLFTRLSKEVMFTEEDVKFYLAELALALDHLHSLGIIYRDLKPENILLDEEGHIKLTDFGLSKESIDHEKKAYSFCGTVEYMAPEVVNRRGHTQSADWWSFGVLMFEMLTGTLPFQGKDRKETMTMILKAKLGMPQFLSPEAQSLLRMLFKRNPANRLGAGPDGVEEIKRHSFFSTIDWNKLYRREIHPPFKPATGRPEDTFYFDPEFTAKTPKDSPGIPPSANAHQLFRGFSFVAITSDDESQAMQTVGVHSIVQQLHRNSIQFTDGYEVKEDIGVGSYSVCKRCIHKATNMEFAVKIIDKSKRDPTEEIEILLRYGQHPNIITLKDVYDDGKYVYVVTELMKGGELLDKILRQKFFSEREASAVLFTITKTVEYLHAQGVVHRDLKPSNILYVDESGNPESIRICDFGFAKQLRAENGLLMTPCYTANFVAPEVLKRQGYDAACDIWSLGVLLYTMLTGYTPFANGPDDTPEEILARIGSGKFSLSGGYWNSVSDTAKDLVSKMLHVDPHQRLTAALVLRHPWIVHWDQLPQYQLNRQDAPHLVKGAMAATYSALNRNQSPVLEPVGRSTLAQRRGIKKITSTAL

[6] = target: T1, Inhibitor of nuclear factor kappa-B kinase subunit alpha (Homo sapiens) (UniProt O15111); assay: Selectivity interaction (KinomeScan (DiscoverX)) EUB0000695a CHUK; conditions: at 100 nM
T1 sequence (whole entry): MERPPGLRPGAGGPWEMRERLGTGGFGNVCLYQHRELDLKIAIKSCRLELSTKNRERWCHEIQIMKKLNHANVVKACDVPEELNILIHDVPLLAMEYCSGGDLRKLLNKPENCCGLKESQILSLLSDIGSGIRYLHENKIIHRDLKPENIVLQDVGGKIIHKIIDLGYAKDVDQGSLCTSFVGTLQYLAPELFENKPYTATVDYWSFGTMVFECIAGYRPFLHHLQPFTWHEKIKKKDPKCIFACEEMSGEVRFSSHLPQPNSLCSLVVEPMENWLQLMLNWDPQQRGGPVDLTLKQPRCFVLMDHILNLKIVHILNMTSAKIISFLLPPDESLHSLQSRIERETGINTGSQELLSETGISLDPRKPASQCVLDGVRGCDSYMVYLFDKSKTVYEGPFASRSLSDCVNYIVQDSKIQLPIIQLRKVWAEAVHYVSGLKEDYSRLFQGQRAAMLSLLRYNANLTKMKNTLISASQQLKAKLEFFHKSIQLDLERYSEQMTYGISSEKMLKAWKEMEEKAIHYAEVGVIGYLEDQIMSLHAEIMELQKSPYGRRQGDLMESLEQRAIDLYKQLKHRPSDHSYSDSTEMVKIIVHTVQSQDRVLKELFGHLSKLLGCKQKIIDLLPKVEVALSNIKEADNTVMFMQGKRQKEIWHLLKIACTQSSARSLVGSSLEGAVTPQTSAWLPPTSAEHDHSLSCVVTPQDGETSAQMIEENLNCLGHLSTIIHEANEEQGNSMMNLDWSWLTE

[7] = target: Casein kinase II subunit alpha' (Homo sapiens) (UniProt P19784); assay: Selectivity interaction (Kinase panel (DSF assay)) EUB0001559a CSNK2A2
Chain of Casein kinase II subunit alpha' (Homo sapiens) (P19784 whole entry, looked up): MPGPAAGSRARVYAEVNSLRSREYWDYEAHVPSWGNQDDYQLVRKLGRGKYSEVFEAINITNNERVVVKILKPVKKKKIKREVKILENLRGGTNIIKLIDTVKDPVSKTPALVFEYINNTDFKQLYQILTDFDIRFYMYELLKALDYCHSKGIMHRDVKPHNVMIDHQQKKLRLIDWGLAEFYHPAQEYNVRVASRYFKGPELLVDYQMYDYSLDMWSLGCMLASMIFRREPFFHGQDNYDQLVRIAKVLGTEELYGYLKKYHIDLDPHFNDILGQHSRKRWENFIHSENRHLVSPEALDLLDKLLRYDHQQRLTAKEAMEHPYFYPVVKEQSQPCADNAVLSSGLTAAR

[8] = target: Calcium/calmodulin-dependent protein kinase type 1 (Homo sapiens) (UniProt Q14012); assay: Selectivity interaction (KinomeScan (DiscoverX)) EUB0001079a CAMK1; conditions: at 1 µM
Chain of Calcium/calmodulin-dependent protein kinase type 1 (Homo sapiens) (Q14012 whole entry, looked up): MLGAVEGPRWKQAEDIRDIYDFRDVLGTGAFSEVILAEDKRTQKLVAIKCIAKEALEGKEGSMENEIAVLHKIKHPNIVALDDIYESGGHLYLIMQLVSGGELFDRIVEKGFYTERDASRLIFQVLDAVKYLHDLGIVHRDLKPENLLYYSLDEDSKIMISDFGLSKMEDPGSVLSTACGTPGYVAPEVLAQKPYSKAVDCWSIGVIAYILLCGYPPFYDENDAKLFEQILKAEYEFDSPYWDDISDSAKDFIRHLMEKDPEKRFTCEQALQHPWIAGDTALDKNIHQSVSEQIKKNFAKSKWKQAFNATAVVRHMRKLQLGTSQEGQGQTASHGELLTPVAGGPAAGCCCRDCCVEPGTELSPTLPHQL

[9] = target: T2, Calcium/calmodulin-dependent protein kinase type IV (Homo sapiens) (UniProt Q16566); assay: Selectivity interaction (Kinase panel (KiNativ target engagement assay in Jurkat cells)) EUB0001635a CAMK4; format: cell-based; conditions: Selectivity number of off-targets 0.0, Selectivity number of targets 233.0, Source Knowledge https://www.sciencedirect.com/science/article/pii/S2451945619300674?via%3Dihub, at 1 µM
T2 sequence (whole entry): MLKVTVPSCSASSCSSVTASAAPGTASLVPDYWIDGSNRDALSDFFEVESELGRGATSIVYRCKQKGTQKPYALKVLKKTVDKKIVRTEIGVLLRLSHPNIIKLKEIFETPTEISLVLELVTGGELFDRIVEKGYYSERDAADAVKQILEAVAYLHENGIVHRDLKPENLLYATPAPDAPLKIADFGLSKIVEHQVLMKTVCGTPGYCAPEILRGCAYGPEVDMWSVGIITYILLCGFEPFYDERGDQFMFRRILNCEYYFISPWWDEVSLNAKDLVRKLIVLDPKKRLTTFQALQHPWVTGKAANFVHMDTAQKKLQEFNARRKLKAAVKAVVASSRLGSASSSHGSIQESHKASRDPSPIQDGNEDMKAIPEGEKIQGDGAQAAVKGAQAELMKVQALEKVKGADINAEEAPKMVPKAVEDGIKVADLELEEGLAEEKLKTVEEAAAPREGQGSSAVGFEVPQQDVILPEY

[10] = target: Histone-lysine N-methyltransferase KMT5C (Homo sapiens) (UniProt Q86Y97); assay: Selectivity interaction (Transferase panel (protein, RNA, and DNA methyltransferases. and EP300 (acetyltransferase))) EUB0000270b SUV420H2
Chain of Histone-lysine N-methyltransferase KMT5C (Homo sapiens) (Q86Y97 whole entry, looked up): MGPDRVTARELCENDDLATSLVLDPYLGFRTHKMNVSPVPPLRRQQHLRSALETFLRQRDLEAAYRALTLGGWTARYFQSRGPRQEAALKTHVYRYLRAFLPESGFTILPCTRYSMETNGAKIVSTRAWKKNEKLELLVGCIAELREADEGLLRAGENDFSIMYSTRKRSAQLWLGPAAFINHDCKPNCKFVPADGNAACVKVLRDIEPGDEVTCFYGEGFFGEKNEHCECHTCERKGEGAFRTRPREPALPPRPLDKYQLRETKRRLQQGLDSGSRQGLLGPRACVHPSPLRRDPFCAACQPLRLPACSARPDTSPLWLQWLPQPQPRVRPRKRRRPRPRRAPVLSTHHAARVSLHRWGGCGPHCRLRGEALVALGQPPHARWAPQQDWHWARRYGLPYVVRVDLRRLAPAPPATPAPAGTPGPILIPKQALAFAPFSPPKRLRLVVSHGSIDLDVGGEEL

[11] = target: T3, Mitogen-activated protein kinase kinase kinase kinase 2 (Homo sapiens) (UniProt Q12851); assay: Selectivity interaction (KinomeScan (DiscoverX)) EUB0001619a MAP4K2; conditions: at 1 µM
T3 sequence (whole entry): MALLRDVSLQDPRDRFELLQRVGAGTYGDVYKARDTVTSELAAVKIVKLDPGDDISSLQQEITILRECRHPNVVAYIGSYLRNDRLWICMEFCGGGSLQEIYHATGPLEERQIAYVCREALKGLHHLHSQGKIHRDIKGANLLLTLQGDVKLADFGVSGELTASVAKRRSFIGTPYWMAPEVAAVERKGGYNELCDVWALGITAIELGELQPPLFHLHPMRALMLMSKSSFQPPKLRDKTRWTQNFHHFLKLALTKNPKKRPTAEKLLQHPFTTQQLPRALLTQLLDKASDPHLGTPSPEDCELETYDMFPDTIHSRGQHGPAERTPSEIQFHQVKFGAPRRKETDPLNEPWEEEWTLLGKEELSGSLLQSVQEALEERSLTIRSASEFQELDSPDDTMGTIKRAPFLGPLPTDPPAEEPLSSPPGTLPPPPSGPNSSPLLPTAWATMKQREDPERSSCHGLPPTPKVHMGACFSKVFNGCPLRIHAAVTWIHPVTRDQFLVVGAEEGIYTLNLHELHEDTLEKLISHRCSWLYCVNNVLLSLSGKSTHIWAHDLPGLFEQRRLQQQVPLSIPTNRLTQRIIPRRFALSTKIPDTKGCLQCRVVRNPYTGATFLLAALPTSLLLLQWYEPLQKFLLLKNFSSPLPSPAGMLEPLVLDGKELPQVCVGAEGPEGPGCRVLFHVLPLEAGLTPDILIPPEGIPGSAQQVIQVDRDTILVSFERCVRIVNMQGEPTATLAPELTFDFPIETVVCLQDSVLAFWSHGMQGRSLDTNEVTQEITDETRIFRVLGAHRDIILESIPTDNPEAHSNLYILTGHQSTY

Chain of Casein kinase I isoform epsilon (P49674 whole entry, looked up, canonical isoform): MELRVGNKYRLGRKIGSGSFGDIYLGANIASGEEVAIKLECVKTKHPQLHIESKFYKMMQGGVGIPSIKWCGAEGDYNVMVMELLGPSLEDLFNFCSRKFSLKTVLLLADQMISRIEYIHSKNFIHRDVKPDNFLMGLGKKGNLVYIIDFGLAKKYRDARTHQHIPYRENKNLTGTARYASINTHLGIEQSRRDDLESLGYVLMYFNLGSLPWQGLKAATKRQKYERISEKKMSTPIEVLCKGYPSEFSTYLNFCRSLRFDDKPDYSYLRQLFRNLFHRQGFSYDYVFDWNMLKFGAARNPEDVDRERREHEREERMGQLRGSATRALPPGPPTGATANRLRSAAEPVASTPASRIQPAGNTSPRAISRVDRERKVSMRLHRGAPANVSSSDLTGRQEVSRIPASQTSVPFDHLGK
Chain of Focal adhesion kinase 1 (Q05397 2-1052 limits assumed): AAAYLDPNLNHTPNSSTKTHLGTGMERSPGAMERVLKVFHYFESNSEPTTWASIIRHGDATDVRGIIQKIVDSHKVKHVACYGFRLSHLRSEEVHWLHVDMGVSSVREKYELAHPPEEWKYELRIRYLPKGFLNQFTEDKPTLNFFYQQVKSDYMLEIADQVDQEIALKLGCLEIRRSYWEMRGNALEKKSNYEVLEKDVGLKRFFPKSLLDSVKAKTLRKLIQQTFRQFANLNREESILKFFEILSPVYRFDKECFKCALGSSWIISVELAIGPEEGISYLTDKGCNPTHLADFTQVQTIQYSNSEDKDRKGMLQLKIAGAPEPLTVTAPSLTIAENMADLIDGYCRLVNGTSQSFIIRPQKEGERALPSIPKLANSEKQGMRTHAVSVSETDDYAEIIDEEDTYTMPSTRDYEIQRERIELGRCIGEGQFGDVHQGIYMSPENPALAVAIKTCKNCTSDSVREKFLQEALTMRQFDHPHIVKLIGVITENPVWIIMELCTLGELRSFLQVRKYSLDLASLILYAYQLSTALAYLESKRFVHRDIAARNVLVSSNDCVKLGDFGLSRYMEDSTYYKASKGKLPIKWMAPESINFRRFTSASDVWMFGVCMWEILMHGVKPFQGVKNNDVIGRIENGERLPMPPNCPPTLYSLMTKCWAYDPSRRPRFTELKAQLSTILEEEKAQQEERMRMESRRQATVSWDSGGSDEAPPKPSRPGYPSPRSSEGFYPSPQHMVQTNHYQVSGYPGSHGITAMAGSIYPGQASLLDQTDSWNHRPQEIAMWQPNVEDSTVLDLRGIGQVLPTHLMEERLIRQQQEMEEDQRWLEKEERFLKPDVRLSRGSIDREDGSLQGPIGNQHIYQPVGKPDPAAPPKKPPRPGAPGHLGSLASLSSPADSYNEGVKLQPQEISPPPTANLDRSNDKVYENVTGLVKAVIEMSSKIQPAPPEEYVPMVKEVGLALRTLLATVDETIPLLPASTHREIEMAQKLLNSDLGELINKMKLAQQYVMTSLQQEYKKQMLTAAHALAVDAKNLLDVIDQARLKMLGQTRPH

For `O=C(NOC[C@H](O)CO)c1ccc(F)c(F)c1Nc1ccc(I)cc1F`, which % of control [1] is on record?
The % of control was 85%.

For `CCN(CC)CCCCNc1ncc2cc(-c3cc(OC)cc(OC)c3)c(NC(=O)NC(C)(C)C)nc2n1`, which % of control [2] is on record?
The % of control was 100%.

Which results are given for `CC[C@@H]1[C@H](F)C(=O)N[C@@H]1COc1nccc2cc(C(N)=O)c(OC)cc12` [ZIMLOVISERTIB]?
% of inhibition [3]: 1.5%; % of inhibition ([4]; at 0.01 µM): -0.6%; % of inhibition ([4]; at 0.04 µM): 0.5%; % of inhibition ([4]; at 0.2 µM): -0.8%; % of inhibition ([4]; at 1 µM): 7.7%; % of inhibition ([4]; at 5 µM): 41.7%; % of inhibition [5]: 0.1%

How did the % of control [6] turn out when `Cc1cc(F)c(C(=O)Nc2cccc(-c3nncn3C(C)C)n2)cc1-n1cnc(C2CC2)c1` was run?
Its % of control is 100%.

Which dTM [7] does the source give for `CN(C(=O)c1cnn2cccnc12)c1cc2c(cc1N1CCOCC1)C(=O)N(C[C@@H](F)C(C)(C)O)C2` here?
Its dTM is 1.4 K.

For `Nc1cnc(N2CCc3cc(S(=O)(=O)Nc4c(F)cc(Cl)cc4F)cc(N4CCCC4=O)c32)nc1` [TP-020n], which % of control [8] is on record?
Its % of control is 88%.

With `C=CC(=O)Nc1ccc(C(=O)Nc2[nH]nc3c2CN(C(=O)N[C@H](CN(C)C)c2ccccc2)C3(C)C)cc1` as the molecule, how does the % of engagement [9] read?
Its % of engagement is 4.5%.

For `Cc1cc(CN)cc(C)c1-c1ncn(C)c1-c1cncn1C`, which % activity ([10]; at 1 µM) is on record?
The % activity was > 90%.

And the % activity ([10]; at 10 µM)?
Its % activity is > 80%.

For `N#Cc1cccc(-c2c[nH]c3ncnc(N4CCOCC4)c23)c1`, which % of control [11] is on record?
Its % of control is 3.4%.
